Source: US4051241A
Like-named read-outs stand apart in the source and are kept apart here.

Key:
HPA axis [1] = tested on: HPA axis
Experimental: (§1) Each of 39 normal human subjects was hospitalized on a clinical pharmacology ward for the entire time (14 days) while the procedures described herein were carried out.
(§2) The following tests were performed, except as otherwise indicated in Table II below, on each of the subjects:
Metyrapone (METP) test, according to a modification of the method described by Liddle et al., J. Clin. Endocr. […] The urine of each of the subjects was collected at 6 hour intervals during the entire 14 day period and analyzed for 17-ketogenic steroids for the METP test.
On each of days 5-11 the various corticosteroids were orally administered, all subjects receiving their daily single dosage of corticosteroids at 6 A.M. Tabulated below, in Table II, are the numbers of subjects receiving a particular dosage per day of a particular corticosteroid.

HPA axis [2] = conditions: oral, 6 A.M., 7 days
Experimental: as §1, §2
On each of days 5-11 the various corticosteroids were orally administered, all subjects receiving their daily single dosage of corticosteroids at 6 A.M. Tabulated below, in Table II, are the numbers of subjects receiving a particular dosage per day of a particular corticosteroid. The dosage regimens chosen reflect the relative potencies of the corticosteroids tested.

[3] = cited from earlier work
[4] = Metabolic effects: loss of urinary nitrogen and calcium
Experimental: Four normal subjects were admitted to a hospital metabolic ward and maintained on a constant diet for days 1-3, the equilibration period.
On days 4-9, the control period, the subjects were also kept on the same constant diet and their urine was collected every 24 hours and assayed for nitrogen and calcium, determined fluorometrically using the method of Henry, R. J., Clinical Chemistry Principles and Techniques, 3rd Edition, p.
On days 10-15, the treatment period, the subjects were still kept on the same constant diet, and 20 mg. (three subjects, 1, 2 and 3) and 12.5 mg. (one subject, 4) of 6-chloro-11β,17α,21-trihydroxypregna-1,4-diene-3,20-dione were daily orally administered in a single dose. The urine of the subjects was collected every 24 hours and assayed for nitrogen and calcium.
After 8 weeks had elapsed, subjects 1 and 2 were readmitted to the hospital metabolic ward.

HPA axis [5] = conditions: in vivo
Experimental: 1. Fasting plasma cortisol level at 6 A.M. on each of days 1-14, according to the method of Murphy et al., J. Clin. Endocr.
3. […] The urine of each of the subjects was collected at 6 hour intervals during the entire 14 day period and analyzed for 17-ketogenic steroids for the METP test.

[6] = human, in vivo
Experimental: The plasma of each volunteer was analyzed for organic solvent extractable radioactivity over a 24 hour period.

[7] = described in U.S. Pat. No. 3,232,965; cited from earlier work

C[C@]12C=CC(=O)C=C1CC[C@@H]1[C@@H]2[C@@H](O)C[C@@]2(C)[C@H]1CC[C@]2(O)C(=O)CO [Prednisolone]
Normal/Total METP Response (HPA axis [1]; 25.0 mg per day, oral, 6 A.M., 7 days): 3/3
Normal/Total A.M. Plasma Cortisol (HPA axis [2]; 5.0 mg per day): 3/3
Normal/Total A.M. Plasma Cortisol (HPA axis [2]; 10.0 mg per day): 3/3
Plasma Half-Life ([3]; Melby, Ann. Int. Med., 81:505-512, 1974): ≥ 3.33 h
loss of nitrogen and calcium, comparison of 6-chloro compound with prednisolone ([4]; equipotent doses, subjects 1 and 2): greater loss of both nitrogen and calcium

C[C@]12C=CC(=O)C=C1CC[C@H]1[C@@H]3C[C@@H](O)[C@](O)(C(=O)CO)[C@@]3(C)C[C@H](O)[C@@]12F [9α-Fluoro-16α-hydroxyprednisolone, 9α-fluoro-11β,16α,17α,21-tetrahydroxypregna-1,4-diene-3,20-dione]
Plasma Half-Life ([3]; in vivo): ≥ 3.33 h

C[C@]12C=CC(=O)C=C1C(Cl)=C[C@@H]1[C@@H]2[C@@H](O)C[C@@]2(C)[C@H]1CC[C@]2(O)C(=O)CO
unwanted side-effects associated with HPA axis suppression (HPA axis [5]): not present
Plasma Half-Life [6]: 2 h
half-life, volunteer No. 1 [6]: approximately 110 minutes
half-life, volunteer No. 2 [6]: approximately 125 minutes
action [7]: cortisone like (anti-inflammatory) action
loss of nitrogen and calcium, comparison of 6-chloro compound with prednisolone ([4]; in vivo): minimized

C[C@H]1C[C@H]2[C@@H]3CCC4=CC(=O)C=C[C@]4(C)[C@@]3(F)[C@@H](O)C[C@]2(C)[C@@]1(O)C(=O)CO [9α-Fluoro-16β-methylprednisolone]
subjects showing a normal metyrapone test (HPA axis [1]; in vivo): none
